# Measured values: US20220251143A1, “NON-HYDROLYZABLE NON-CLEAVABLE, STABLE LINKERS FOR PRECISION THERAPEUTICS AND USES THEREOF” (THE TRUSTEES OF COLUMBIA UNIVERSITY IN THE CITY OF NEW YORK, priority 2019, published 2022)
# Bridge positions count the residues as written; N and C are the ends. Square brackets hold non-standard residues; d marks the D form. Peptide text beside a SMILES is read from it. * marks the point of attachment. DM1Mal(CH2)2CO = COc1cc2cc(c1Cl)N(C)C(=O)C[C@H](OC(=O)[C@H](C)N(C)C(=O)CCSC1CC(=O)N(CCC(=O)*)C1=O)[C@]1(C)O[C@H]1[C@H](C)[C@@H]1C[C@@](O)(NC(=O)O1)[C@H](OC)/C=C/C=C(\C)C2; X1 = COc1cc2cc(c1Cl)N(C)C(=O)C[C@H](OC(=O)[C@H](C)N(C)C(=O)CCSC1CC(=O)N(CCCC(=O)*)C1=O)[C@]1(C)O[C@H]1[C@H](C)[C@@H]1C[C@@](O)(NC(=O)O1)[C@H](OC)/C=C/C=C(\C)C2; d2Nal = N[C@H](Cc1ccc2ccccc2c1)C(=O)O; PEG2 = NCCOCCOCCC(=O)O
# Columns and labels:
# [1] = tested on: SSTR2 expression in NEC1 (NCI-H82) cells; test: SSTR2 expression by quantitative PCR, NEC1; type: cell-based; settings: within 72 hours, 1 or 3 nanomolar romidepsin or 1 micromolar entinostat
# Protocol: (§1) Three neuroendocrine cell lines, NEC1 (NCI—H82), NEC2 (Kelly), and NEC3 (H727), were incubated in media containing 1 or 3 nanomolar romidepsin (EA1) or 1 micromolar entinostat (EA2) or without drug at 37° C. under 5% CO2 for 72-96 hours after which time cellular RNA was harvested and expression of the SSTR determined.
# (§2) Somatostatin receptor expression was measured by quantitative PCR using primers for SSTR2.
# [2] = tested on: SSTR2 expression in NEC2 (Kelly) cells; test: SSTR2 expression by quantitative PCR, NEC2; type: cell-based; settings: within 72 hours, 1 or 3 nanomolar romidepsin or 1 micromolar entinostat
# Protocol: as §1, §2
# [3] = tested on: SSTR2 expression in NEC3 (H727) cells; test: SSTR2 expression by quantitative PCR, NEC3; type: cell-based; settings: within 72 hours, 1 or 3 nanomolar romidepsin or 1 micromolar entinostat
# Protocol: as §1, §2
# [4] = Stability of aqueous solutions at 4° C.; type: physicochemical; settings: preliminary studies
# From the text: (§3) Conjugate composition comprising DM1 and lanreotide and the non-hydrolyzable, non-cleavable, stable linker GMBS was synthesized as shown in Scheme 1. Briefly, the primary amine of lanreotide was protected with Boc20. The reaction of the second amine group of the protected lanreotide with the NHS ester of GMBS gave the intermediate GMBS-lanreotide. The reaction of the maleimide of GMBS-lanreotide with the sulfhydryl group (—SH) of DM1 gave a protected conjugate. De-protection of the Boc with TFA provided the final product. All compounds were fully characterized and purified to >95% as determined by NMR and LC-MS analyses. The purity of the compound for animal studies is >98%.
# as §3, with “PEG” for “GMBS”, “2.” for “1.”, “PEG-lanreotide.” for “GMBS-lanreotide.”, “PEG-lanreotide” for “GMBS-lanreotide”
# [5] = tested on: neuroendocrine prostate cancer (NEPC) organoids; settings: three days
# From the text: A neuroendocrine prostate cancer (NEPC) cell line was used and NEPC organoids were generated.
# CellTiter-Glo Luminescent Cell Viability assay measured viable cells. The percentage of viable cells after drug treatment compared to vehicle control (DMSO) was used to generate a dose—response curve.
SMILES,induction of the somatostatin receptor (SSTR2 expression) [1],induction of the somatostatin receptor (SSTR2 expression) [2],induction of the somatostatin receptor (SSTR2 expression) [3],stability of aqueous solutions [4],"effectiveness compared with conjugate with cleavable, hydrolysable linker (MCC) ([5]; NEPC organoids)",activity in NEPC organoids (viable cells) ([5]; 1 uM to 0.00046 uM)
Nc1ccccc1NC(=O)c1ccc(CNC(=O)OCc2cccnc2)cc1 [entinostat],Induction of the somatostatin receptor,Induction of the somatostatin receptor,Induction of the somatostatin receptor,,,
COc1cc2cc(c1Cl)N(C)C(=O)C[C@H](OC(=O)[C@H](C)N(C)C(=O)CCSC1CC(=O)N(CCC(=O)NCCOCCOCCC(=O)N[C@H](Cc3ccc4ccccc4c3)C(=O)N[C@H]3CSSC[C@H](C(=O)N[C@H](C(N)=O)[C@@H](C)O)NC(=O)[C@H](C(C)C)NC(=O)[C@H](CCCCN)NC(=O)[C@@H](Cc4c[nH]c5ccccc45)NC(=O)[C@H](Cc4ccc(O)cc4)NC3=O)C1=O)[C@]1(C)O[C@H]1[C@H](C)[C@@H]1C[C@@](O)(NC(=O)O1)[C@H](OC)/C=C/C=C(\C)C2 (stereo partly shown) [DM1-PEG-Lanreotide] ({DM1Mal(CH2)2CO-PEG2}-[d2Nal]CY[dW]KV[dC]T-NH2; disulfide 2-7),,,,stable at 4 °C for months,more effective,effective and active
COc1cc2cc(c1Cl)N(C)C(=O)C[C@H](OC(=O)[C@H](C)N(C)C(=O)CCSC1CC(=O)N(CCCC(=O)N[C@H](Cc3ccc4ccccc4c3)C(=O)N[C@H]3CSSC[C@H](C(=O)N[C@H](C(N)=O)[C@@H](C)O)NC(=O)[C@H](C(C)C)NC(=O)[C@H](CCCCN)NC(=O)[C@@H](Cc4c[nH]c5ccccc45)NC(=O)[C@H](Cc4ccc(O)cc4)NC3=O)C1=O)[C@]1(C)O[C@H]1[C@H](C)[C@@H]1C[C@@](O)(NC(=O)O1)[C@H](OC)/C=C/C=C(\C)C2 (stereo partly shown) [DM1-GMBS-Lanreotide] (X1-[d2Nal]CY[dW]KV[dC]T-NH2; disulfide 2-7),,,,stable at 4 °C for months,,
